Results as given in ChEMBL document CHEMBL5465560, “Selectivity Literature for EUbOPEN Chemogenomic Library” (2024).

Legend:
[1] = target: High affinity nerve growth factor receptor (Homo sapiens, UniProt P04629); experiment: Selectivity interaction (KinomeScan (DiscoverX)) EUB0000092b NTRK1; conditions: at 10 µM
[2] = target: Aurora kinase B (Homo sapiens, UniProt Q96GD4); experiment: Selectivity interaction (Panel of kinases, GPCRs, ion channels and transporters (enzymatic assay)) EUB0000266bCl AURKB
[3] = target: T1, Ephrin type-A receptor 3 (Homo sapiens) (UniProt P29320); experiment: Selectivity interaction (KinomeScan (DiscoverX)) EUB0001079a EPHA3; conditions: at 1 µM
T1 sequence (whole entry): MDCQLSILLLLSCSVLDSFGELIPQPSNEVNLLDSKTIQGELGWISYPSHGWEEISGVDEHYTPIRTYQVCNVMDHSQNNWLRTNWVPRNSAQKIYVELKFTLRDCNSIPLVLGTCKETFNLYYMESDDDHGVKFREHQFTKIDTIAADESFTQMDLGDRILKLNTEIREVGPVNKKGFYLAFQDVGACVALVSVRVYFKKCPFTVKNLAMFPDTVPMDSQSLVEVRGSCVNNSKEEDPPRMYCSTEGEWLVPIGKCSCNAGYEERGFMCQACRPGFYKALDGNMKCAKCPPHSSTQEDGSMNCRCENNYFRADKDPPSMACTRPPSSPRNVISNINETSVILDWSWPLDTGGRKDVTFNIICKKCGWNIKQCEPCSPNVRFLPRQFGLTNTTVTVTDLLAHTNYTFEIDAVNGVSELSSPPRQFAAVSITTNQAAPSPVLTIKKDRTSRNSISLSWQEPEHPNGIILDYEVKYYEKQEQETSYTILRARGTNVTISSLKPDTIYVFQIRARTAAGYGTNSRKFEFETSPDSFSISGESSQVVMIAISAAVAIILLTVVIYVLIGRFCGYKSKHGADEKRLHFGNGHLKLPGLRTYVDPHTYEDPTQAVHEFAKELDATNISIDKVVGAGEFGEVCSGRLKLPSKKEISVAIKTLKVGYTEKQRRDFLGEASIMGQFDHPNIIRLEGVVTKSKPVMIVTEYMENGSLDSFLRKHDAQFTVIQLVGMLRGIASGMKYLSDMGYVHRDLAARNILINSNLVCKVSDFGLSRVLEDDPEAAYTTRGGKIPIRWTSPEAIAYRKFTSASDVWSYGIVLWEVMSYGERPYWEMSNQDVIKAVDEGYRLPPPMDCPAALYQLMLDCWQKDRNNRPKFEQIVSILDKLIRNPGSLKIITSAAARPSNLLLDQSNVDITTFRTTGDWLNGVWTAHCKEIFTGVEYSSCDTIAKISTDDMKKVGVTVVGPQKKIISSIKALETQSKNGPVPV

[4] = target: Serine/threonine-protein kinase 35 (Homo sapiens) (UniProt Q8TDR2); conditions: at 10 µM
[5] = target: Casein kinase I isoform alpha (Homo sapiens, UniProt P48729); conditions: at 10 µM
[6] = target: Glycogen synthase kinase-3 alpha (Homo sapiens, UniProt P49840); experiment: Selectivity interaction (Kinase panel (Z-LYTE Assay)) EUB0001632a GSK3A; conditions: at 10 µM
[7] = target: T2, Serine/threonine-protein kinase ULK1 (Homo sapiens) (UniProt O75385); experiment: Selectivity interaction (ActivX KiNativ screen (kinase selectivity in THP-1 cell lysates)) EUB0000639a ULK1; type: subcellular; conditions: lysate
T2 sequence (whole entry): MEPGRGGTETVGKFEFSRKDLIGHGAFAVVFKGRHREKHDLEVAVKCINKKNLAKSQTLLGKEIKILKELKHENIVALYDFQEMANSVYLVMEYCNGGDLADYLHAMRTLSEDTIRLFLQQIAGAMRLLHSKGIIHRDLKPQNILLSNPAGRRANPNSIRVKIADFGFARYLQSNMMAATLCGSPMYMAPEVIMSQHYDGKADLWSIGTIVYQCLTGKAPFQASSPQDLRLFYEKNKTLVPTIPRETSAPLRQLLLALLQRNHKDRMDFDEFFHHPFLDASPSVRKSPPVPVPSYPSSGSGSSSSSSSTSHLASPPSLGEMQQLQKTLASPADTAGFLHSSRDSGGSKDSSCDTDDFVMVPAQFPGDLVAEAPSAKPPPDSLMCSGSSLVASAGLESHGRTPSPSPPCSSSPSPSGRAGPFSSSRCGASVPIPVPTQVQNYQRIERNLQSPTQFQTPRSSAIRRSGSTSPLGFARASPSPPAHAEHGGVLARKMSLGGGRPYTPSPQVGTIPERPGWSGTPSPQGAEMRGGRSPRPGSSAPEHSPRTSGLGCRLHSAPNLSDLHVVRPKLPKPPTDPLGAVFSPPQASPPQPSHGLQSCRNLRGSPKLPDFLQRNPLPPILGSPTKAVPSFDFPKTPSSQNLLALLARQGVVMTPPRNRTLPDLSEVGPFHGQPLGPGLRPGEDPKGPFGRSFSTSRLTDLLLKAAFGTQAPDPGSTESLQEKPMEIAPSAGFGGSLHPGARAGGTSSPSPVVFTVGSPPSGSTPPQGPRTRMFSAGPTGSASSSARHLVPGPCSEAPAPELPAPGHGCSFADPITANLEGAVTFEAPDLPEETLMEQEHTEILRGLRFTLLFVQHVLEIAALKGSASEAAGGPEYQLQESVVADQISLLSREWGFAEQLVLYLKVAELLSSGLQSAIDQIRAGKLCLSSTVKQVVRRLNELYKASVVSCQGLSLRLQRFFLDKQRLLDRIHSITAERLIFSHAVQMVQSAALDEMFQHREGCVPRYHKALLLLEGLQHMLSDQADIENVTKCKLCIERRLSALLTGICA

[8] = target: Serine/threonine-protein kinase N1 (Homo sapiens, UniProt Q16512); experiment: Selectivity interaction (ActivX KiNativ screen (kinase selectivity in THP-1 cell lysates)) EUB0000639a PKN1; type: subcellular; conditions: lysate, at 0.2 µM
[9] = target: Mitogen-activated protein kinase kinase kinase kinase 5 (Homo sapiens) (UniProt Q9Y4K4); experiment: Selectivity interaction (SelectScreen profiling (Invitrogen)) EUB0000607a MAP4K5; conditions: at 2 µM
[10] = target: T3, Fibroblast growth factor receptor 1 (Homo sapiens, UniProt P11362); experiment: Selectivity interaction (KinomeScan (DiscoverX)) EUB0000607a FGFR1; conditions: at 10 µM
[11] = target: T3, Fibroblast growth factor receptor 1; experiment: Selectivity interaction (SelectScreen profiling (Invitrogen)) EUB0000607a FGFR1; conditions: at 2 µM
[12] = target: Dual specificity tyrosine-phosphorylation-regulated kinase 1B (Homo sapiens, UniProt Q9Y463); experiment: Selectivity interaction (KinomeScan (DiscoverX)) EUB0001049a DYRK1B; conditions: at 1 µM
[13] = target: Mitogen-activated protein kinase 7 (Homo sapiens) (UniProt Q13164); experiment: Selectivity interaction (KinomeScan (DiscoverX)) EUB0000045b MAPK7
[14] = target: Mast/stem cell growth factor receptor Kit (Homo sapiens, UniProt P10721); experiment: Selectivity interaction (Ambit KINOMEscan and KiNATiv profiling in Jurkat cells) EUB0000090b KIT; type: cell-based; conditions: at 1 µM

Mitogen-activated protein kinase 7 (Homo sapiens), sequence (Q13164 2-816 limits assumed): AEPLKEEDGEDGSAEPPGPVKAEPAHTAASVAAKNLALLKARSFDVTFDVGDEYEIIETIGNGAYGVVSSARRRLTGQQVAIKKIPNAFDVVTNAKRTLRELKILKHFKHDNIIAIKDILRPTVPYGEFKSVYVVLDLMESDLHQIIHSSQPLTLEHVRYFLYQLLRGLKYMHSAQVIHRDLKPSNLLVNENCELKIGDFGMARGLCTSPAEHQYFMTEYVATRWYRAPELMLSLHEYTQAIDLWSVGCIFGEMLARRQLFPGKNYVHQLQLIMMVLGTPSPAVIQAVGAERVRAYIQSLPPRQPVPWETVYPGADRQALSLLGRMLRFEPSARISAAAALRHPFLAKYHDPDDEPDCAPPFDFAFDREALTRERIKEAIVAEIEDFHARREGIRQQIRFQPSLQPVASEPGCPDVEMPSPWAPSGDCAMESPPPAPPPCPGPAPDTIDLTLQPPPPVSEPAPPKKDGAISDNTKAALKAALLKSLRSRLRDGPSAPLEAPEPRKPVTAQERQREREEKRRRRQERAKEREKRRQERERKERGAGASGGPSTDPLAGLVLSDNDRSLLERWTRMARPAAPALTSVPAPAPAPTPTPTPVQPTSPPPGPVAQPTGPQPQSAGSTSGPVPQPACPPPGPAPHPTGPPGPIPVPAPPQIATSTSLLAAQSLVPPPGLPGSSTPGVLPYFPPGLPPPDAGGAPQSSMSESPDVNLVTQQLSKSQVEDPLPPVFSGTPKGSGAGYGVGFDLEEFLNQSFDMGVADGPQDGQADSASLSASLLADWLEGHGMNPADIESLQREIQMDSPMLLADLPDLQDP
T3 sequence (P11362 22-822 limits assumed): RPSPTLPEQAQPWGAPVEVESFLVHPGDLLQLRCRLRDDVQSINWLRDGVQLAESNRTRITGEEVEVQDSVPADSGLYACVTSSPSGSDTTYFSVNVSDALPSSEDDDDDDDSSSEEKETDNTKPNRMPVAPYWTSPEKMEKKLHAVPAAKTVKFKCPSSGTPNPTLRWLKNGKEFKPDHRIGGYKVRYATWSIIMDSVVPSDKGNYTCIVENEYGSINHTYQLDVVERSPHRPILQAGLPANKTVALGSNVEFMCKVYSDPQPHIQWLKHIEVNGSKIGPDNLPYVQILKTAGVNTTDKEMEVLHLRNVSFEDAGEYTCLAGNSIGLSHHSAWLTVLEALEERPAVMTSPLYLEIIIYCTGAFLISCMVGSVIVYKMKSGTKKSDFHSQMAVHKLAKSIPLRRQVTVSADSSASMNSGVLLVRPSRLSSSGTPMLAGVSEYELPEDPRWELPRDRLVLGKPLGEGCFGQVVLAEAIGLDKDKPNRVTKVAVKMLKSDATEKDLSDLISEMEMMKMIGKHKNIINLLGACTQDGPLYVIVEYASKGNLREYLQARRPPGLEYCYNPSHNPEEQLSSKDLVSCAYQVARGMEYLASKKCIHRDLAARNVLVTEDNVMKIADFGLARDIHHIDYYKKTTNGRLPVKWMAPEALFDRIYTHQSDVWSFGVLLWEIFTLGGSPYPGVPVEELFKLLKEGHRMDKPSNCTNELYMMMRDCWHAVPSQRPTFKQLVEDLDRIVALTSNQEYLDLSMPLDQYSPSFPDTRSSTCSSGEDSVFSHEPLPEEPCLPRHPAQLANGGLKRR
High affinity nerve growth factor receptor, sequence (P04629 33-796 limits assumed): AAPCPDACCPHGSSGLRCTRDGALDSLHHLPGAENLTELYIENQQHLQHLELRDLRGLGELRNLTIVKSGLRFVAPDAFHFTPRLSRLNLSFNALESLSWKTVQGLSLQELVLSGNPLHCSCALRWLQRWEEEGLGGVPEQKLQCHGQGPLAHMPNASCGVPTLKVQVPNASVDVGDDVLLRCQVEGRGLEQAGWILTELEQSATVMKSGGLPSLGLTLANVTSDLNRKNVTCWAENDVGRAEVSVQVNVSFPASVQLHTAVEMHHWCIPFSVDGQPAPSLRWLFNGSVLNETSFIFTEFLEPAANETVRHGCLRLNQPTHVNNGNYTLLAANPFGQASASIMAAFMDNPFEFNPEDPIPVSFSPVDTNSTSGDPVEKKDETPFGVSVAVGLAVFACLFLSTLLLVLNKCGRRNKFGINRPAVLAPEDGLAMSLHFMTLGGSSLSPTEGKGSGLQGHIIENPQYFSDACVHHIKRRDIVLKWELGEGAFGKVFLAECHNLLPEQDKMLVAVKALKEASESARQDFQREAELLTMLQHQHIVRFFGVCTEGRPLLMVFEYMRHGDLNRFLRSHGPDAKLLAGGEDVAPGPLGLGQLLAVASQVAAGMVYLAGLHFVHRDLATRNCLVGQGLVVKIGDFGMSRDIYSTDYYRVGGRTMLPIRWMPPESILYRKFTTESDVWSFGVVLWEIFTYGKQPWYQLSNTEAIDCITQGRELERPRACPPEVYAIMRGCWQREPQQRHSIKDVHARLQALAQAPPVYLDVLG
Serine/threonine-protein kinase N1, sequence (Q16512 2-942 limits assumed): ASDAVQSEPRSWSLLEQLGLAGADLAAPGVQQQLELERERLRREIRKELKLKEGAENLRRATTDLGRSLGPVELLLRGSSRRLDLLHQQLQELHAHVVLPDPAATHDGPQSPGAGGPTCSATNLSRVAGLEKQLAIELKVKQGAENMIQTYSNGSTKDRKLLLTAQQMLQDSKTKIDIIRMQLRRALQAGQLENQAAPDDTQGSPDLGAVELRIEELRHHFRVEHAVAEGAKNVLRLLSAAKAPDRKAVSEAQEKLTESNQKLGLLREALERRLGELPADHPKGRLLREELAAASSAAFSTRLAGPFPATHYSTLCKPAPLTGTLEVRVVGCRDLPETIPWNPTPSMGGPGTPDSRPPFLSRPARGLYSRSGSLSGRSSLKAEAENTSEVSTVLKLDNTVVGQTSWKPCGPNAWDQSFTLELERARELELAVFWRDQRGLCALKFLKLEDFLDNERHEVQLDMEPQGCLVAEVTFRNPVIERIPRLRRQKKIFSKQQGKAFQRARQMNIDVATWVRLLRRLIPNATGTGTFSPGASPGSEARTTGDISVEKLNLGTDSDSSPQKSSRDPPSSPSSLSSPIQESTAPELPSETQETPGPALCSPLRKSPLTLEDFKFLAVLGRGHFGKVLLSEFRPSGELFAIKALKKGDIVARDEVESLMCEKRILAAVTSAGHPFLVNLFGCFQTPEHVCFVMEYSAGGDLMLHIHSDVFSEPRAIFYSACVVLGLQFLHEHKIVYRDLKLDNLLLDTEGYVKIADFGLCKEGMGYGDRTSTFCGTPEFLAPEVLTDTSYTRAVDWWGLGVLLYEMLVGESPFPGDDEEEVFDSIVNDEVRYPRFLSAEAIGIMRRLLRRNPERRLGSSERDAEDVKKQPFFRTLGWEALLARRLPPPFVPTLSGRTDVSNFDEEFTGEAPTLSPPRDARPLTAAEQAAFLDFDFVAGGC
Casein kinase I isoform alpha, sequence (P48729 2-337 limits assumed): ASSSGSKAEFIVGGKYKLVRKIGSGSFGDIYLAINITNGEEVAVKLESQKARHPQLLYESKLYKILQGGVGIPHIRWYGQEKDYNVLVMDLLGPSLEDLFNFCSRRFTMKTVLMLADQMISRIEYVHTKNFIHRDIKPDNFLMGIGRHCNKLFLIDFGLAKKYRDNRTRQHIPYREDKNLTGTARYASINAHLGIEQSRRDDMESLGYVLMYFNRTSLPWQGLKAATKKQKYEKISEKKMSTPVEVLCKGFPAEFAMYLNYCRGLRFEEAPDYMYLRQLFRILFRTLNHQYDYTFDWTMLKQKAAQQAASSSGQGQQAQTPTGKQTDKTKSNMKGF
Glycogen synthase kinase-3 alpha, sequence (P49840 2-483 limits assumed): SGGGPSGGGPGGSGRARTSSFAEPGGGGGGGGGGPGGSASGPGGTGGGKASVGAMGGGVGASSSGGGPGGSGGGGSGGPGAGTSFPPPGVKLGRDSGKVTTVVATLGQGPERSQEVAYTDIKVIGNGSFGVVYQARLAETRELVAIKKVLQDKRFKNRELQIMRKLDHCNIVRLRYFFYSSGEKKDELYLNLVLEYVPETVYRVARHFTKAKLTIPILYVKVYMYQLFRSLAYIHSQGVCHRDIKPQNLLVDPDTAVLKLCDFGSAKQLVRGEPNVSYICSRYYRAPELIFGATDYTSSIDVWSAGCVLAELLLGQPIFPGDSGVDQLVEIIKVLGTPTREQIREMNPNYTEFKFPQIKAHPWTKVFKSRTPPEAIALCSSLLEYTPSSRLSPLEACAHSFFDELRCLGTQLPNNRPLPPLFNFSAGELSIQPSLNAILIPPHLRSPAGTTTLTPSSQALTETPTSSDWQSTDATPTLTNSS
Dual specificity tyrosine-phosphorylation-regulated kinase 1B, sequence (Q9Y463 whole entry, looked up): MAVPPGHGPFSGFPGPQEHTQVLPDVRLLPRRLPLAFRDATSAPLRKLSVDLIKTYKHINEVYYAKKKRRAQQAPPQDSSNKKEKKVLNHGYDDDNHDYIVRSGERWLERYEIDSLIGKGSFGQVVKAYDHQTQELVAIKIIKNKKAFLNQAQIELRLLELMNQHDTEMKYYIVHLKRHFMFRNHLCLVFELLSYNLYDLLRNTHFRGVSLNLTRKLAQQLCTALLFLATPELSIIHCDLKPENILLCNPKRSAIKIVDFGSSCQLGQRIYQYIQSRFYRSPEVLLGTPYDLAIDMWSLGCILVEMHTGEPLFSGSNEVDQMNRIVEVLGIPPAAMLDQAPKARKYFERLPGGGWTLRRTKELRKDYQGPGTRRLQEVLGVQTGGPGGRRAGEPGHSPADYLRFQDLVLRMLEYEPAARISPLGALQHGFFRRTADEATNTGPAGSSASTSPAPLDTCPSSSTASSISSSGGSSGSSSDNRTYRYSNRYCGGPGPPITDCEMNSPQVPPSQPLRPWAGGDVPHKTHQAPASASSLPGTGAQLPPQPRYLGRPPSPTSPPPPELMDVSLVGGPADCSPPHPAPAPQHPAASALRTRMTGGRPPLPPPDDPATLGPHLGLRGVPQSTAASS

Work on `CCC(=O)N1CCN(c2ccc(-n3c(=O)ccc4cnc5ccc(-c6cnc7ccccc7c6)cc5c43)cc2C(F)(F)F)CC1` yielded a % of control [1] of 64%.
Molecule `CCn1c(-c2nc3cc(C(=O)N4CCCC(N)C4)ccc3n2C)cc2ccccc21` (centres undefined) has a pXC50 [2] of less than 4.5 M.
`Nc1cnc(N2CCc3cc(S(=O)(=O)Nc4c(F)cc(Cl)cc4F)cc(N4CCCC4=O)c32)nc1` [TP-020n] showed a % of control [3] of 78%.
`Cc1cc([C@@H](C)Nc2ccccc2C(=O)O)c2nc(N3CCOCC3)cc(=O)n2c1` [AZD-6482] gave a % of control [4] of 95% and a % of control [5] of 63%.
Molecule `Cn1cc(-n2cnc3c(NCc4nc5cc(Cl)c(Cl)cc5[nH]4)nc(N4CCOCC4)nc32)cn1` has a % of control [6] of 82.2%.
`CC[C@@H]1[C@H](F)C(=O)N[C@@H]1COc1nccc2cc(C(N)=O)c(OC)cc12` [ZIMLOVISERTIB] showed a % of inhibition ([7]; at 0.01 µM) of 4.8%, a % of inhibition ([7]; at 0.04 µM) of 4.1% and a % of inhibition ([7]; at 0.2 µM) of 6.2%. For the same molecule, the % of inhibition ([7]; at 1 µM) was -18.5%, the % of inhibition ([7]; at 5 µM) was 8% and the % of inhibition [8] was 5.5%.
With `CNC(=O)Nc1ccc(-c2nc(N3CC4CCC(C3)O4)c3cnn(C4CCC5(CC4)OCCO5)c3n2)cc1` the % of inhibition [9] was 19%, the % of control [10] was 100% and the % of inhibition [11] was 4%.
`COc1cc(Nc2nc(C)cc(-c3cnn4nc(OC)ccc34)n2)cc(C(F)(F)F)c1` was tested, and the % of control [12] was 100%.
Work on `C=CC(=O)Nc1cc(-n2c(=O)ccc3cnc4ccc(-c5ccc(NS(C)(=O)=O)cc5)cc4c32)ccc1C` yielded a % of control ([13]; at 1 µM) of 100% and a % of control ([13]; at 10 µM) of 100%.
`CN(C)C/C=C/C(=O)Nc1ccc(C(=O)N2CCCC(Nc3ncc(Cl)c(-c4c[nH]c5ccccc45)n3)C2)cc1` (centres undefined) showed a % of control [14] of 93%.
